Several values for one entry are separate records, joined by “and”; a condition that tells them apart may be missing. Equal entries are not always repeated. Where two headings read alike, the source gives them in different places.
Legend:
[1] = test system: isolated mouse pancreatic islets; format: cell-based; settings: for glucagon secretion, % of that at 1 mmol/l glucose: mean ± SEM
Method: Experiments were conducted as previously described. Islets were incubated in 0.3 ml EC1 or EC2 media (ESM Table 2) supplemented with glucose and other reagents as indicated.
(§1) All data are reported, unless otherwise stated, as mean values ± SEM for the indicated number of experiments using islets from multiple mice. For hormone release studies, islets were isolated and pooled from 4–16 mice. These islets were then subdivided into groups of 12–20 size-matched islets. Each unique set of islets counted as an experiment with the experiments repeated on 2–4 days. Similarly, each unique group of human islets was treated as an experiment. […] In the Ca^2+ imaging and granule docking experiment, each cell represents an experiment making sure that cells from multiple donors/animals were used. For the in vivo experiments and the perfused pancreas, each mouse count represents an experiment. For two groupings, a t test was conducted. For multiple comparisons, one-way ANOVA was conducted. All statistical tests were performed using Graphpad Prism (version 9.1.0; graphpad.com).

human pancreatic islets = assay: Glucagon secretion in human islets (ELISA); format: cell-based
Method: Human pancreatic islets were isolated (with ethical approval and clinical consent) as previously described. Islets from the pancreases of 18 healthy donors and five donors with type 2 diabetes were used (see electronic supplementary material [ESM] Table 1; ESM Human islets checklist).
(§2) Mouse islets were used acutely, except for studies with PTX, wherein islets were treated overnight with the toxin. Human islets were maintained in culture for up to 48 h in RPMI medium containing 10% (vol./vol.) FCS, 1% (vol./vol.) penicillin/streptomycin and 5 mmol/l glucose. Experiments were conducted as previously described. Islets were incubated in 0.3 ml EC1 or EC2 media (ESM Table 2) supplemented with glucose and other reagents as indicated. Glucagon was determined by ELISA (Mercodia).
as §1, with “graphpad.com). It was ascertained that the data were normally distributed.” for “graphpad.com).”

[2] = test system: isolated mouse pancreatic islets; assay: Somatostatin secretion in isolated mouse islets (RIA); format: cell-based; settings: 10–10,000 pmol/l, 1 mmol/l glucose
Method: as §2
Insulin and somatostatin were determined by RIA (Millipore and Diasource ImmunoAssays, respectively) as described previously. In these experiments, rates of release are expressed as % of contents unless otherwise indicated.

mouse alpha cells = assay: TIRF imaging of docked secretory granules in mouse alpha cells; format: cell-based
Method: Cells were imaged using total internal reflection fluorescence (TIRF) microscopy (AxioObserver Z1 with a ×100/1.45 objective [Carl Zeiss] and a diode-pumped solid state laser at 491 nm). For these measurements, EC1 was used (ESM Table 2). Images from cells infected with preproglucagon promoter (PPPG)-neuropeptide Y (NPY)-enhanced green fluorescent protein (EGFP) virus were recorded using an electron-multiplying charge-coupled device camera (Photometrics Evolve) using ZEN blue. Single images of cells were acquired to measure the number of docked granules. Incoming and outgoing granules during visiting, docking and undocking were determined from multiple frame movies as described previously. Candidate docking or undocking events were found manually as granules that approached the TIRF field with an axial component and became laterally confined for at least two frames. We defined docking as granules that remained confined for at least 1 min. Visitors were those granules that remained for <1 min after appearing at the plasma membrane. Undocking was defined as slow movement of a previously docked granule away from its docking site. Granule density was calculated using a script that used the built-in ‘find maxima’ function in ImageJ (version 1.53c; http://rsbweb.nih.gov/ij) for spot detection.

P/Q-type Ca^2+ channels = assay: [Ca2+]i imaging of depolarisation-evoked Ca2+ entry in alpha cells (Gcg-GCaMP6f islets); format: cell-based, mouse; settings: 10 pmol/l, 70 mmol/l [K+]o, isradipine 10 μmol/l; n=139 cells from 4 mice
Method: For live-cell cytoplasmic free Ca^2+ concentration ([Ca^2+]i) imaging experiments, Gcg-GCaMP6f islets were immobilised to a poly-L-lysine-coated coverslip fixed in a custom-built imaging chamber filled with EC3 (ESM Table 2). [Ca^2+]i was measured in islets from mice expressing GCaMP6f in alpha cells. [Ca^2+]i imaging experiments were then performed using an inverted LSM 510 confocal microscope (Zeiss) controlled with ZEN Black (Zeiss), using a ×40/1.3 oil immersion objective. Time-lapse images were collected every 0.98 s with a frame size of 256×256 pixels, with the bath solution (EC3) perfused at a rate of 0.4 ml/min and heated to 37°C. GCaMP6f was excited by an argon laser (488 nm) and emission was collected at 510 nm.
[Ca^2+]i imaging videos were analysed using the Fiji imaging processing package. The mean fluorescence (F) of each region of interest was normalised to baseline signal (F0) and expressed as F/F0 before exporting into ClampFit (version 10.7; Molecular Devices, CA, USA), where baseline was corrected and AUC was calculated.

C57Bl6N mice = assay: Plasma glucose and glucagon during insulin-induced hypoglycaemia; format: in vivo, mouse
Method: In the experiments involving the use of REMD2.59, mice were injected intraperitoneally with the antagonist (5 mg/kg body weight in PBS) or vehicle 24 h prior to insulin-induced hypoglycaemia. Following the completion of the experiment, the mice were euthanised and the pancreases were resected and weighed.

[3] = mouse, in vivo, ip
Method: C57Bl6N mice were fasted for 5 h prior to the ITTs. GLP-1(9–36) (100 µg/kg body weight) was injected intraperitoneally before or with insulin as indicated. The relative high dose of GLP-1(9–36) was used because of high basal levels of the peptide. In the control experiments, mice were injected with the saline solvent (154 mmol/l NaCl). […] Total GLP-1 was measured by ELISA (81508; Crystal Chem, Zaandam, the Netherlands; CV<10%).

CC[C@H](C)[C@H](NC(=O)[C@H](Cc1ccccc1)NC(=O)[C@H](CCC(=O)O)NC(=O)[C@H](CCCCN)NC(=O)[C@H](C)NC(=O)[C@H](C)NC(=O)[C@H](CCC(N)=O)NC(=O)CNC(=O)[C@H](CCC(=O)O)NC(=O)[C@H](CC(C)C)NC(=O)[C@H](Cc1ccc(O)cc1)NC(=O)[C@H](CO)NC(=O)[C@H](CO)NC(=O)[C@@H](NC(=O)[C@H](CC(=O)O)NC(=O)[C@H](CO)NC(=O)[C@@H](NC(=O)[C@H](Cc1ccccc1)NC(=O)[C@@H](NC(=O)CNC(=O)[C@@H](N)CCC(=O)O)[C@@H](C)O)[C@@H](C)O)C(C)C)C(=O)N[C@@H](C)C(=O)N[C@@H](Cc1c[nH]c2ccccc12)C(=O)N[C@@H](CC(C)C)C(=O)N[C@H](C(=O)N[C@@H](CCCCN)C(=O)NCC(=O)N[C@@H](CCCNC(=N)N)C(N)=O)C(C)C [GLP-1(9–36)]
glucagon secretion, % of that at 1 mmol/l glucose ([1]; 10 pmol/l GLP-1(9–36) in the presence of REMD2.59 100 nmol/l): 110±4% | inhibitory effect on glucagon secretion in Glp1r−/− mouse islets ([1]; 10 pmol/l, Glp1r−/− islets, 1 mmol/l glucose): persisted | glucagonostatic effect in the presence of exendin(9–39) ([1]; 10 pmol/l, exendin(9–39) 1 μmol/l, 1 mmol/l glucose): retained their glucagonostatic effect | inhibition of glucagon secretion ([1]; 30 pmol/l, 1 mmol/l glucose): 55% | change of glucagon secretion compared with 10 mmol/l glucose alone ([1]; 30 pmol/l, 10 mmol/l glucose): −50% | glucagon secretion, % of that at 1 mmol/l glucose ([1]; 1000 pmol/l GLP-1(9–36) in the presence of REMD2.59 100 nmol/l): 76±5% | glucagonostatic effect in the presence of the PKA inhibitor 8-Br-Rp-cAMPS ([1]; 8-Br-Rp-cAMPS 10 μmol/l, 1 mmol/l glucose): retains its glucagonostatic capacity | IC50 ([1]; 48 h): 4 pM | inhibition of amino acid-induced glucagon secretion ([1]; AA 6 mmol/l (2 mmol/l each glutamine, alanine, arginine), 1 mmol/l glucose): −66% | reduction of isoprenaline-stimulated glucagon secretion ([1]; in the presence of isoprenaline): 75% | inhibition of glucagon secretion ([1]; islets cultured overnight without PTX, 1 mmol/l glucose): ~ 50% | reduction of glucagon secretion evoked by 70 mmol/l [K+]o ([1]; membrane depolarisation, 70 mmol/l extracellular K+): 60% | inhibitory effect on glucagon secretion after PTX pretreatment ([1]; overnight PTX 100 ng/ml, 1 mmol/l glucose): almost abolished | expected inhibition of glucagon secretion by circulating levels ([1]; ~30 pmol/l, from the dose–inhibition curves established in vitro): up to 80% | inhibition of glucagon secretion (human pancreatic islets; human islets, 10 pmol/l, 1 mmol/l glucose): ~ 50% | glucagonostatic effect (human pancreatic islets; human islets, 6 mmol/l glucose): exerted a glucagonostatic effect | glucagonostatic effect (human pancreatic islets; human islets, 20 mmol/l glucose): not at 20 mmol/l glucose | suppression of glucagon release in islets from donors with type 2 diabetes (human pancreatic islets; islets from donors with type 2 diabetes): loss | effect on somatostatin secretion [2]: No stimulatory effects | time at which reduction of docked granules was maximal (mouse alpha cells; 10 pmol/l): 10 min | reduction of the number of docked granules (mouse alpha cells; 10 pmol/l, 1 mmol/l glucose, mouse alpha cells): 40% | how granule density was reduced (docking, undocking, arrival) (mouse alpha cells; 10 pmol/l, during 15 min): inhibiting granule docking and stimulating granule undocking, while not affecting the rate of arrival | capacity to reduce docked granules in the presence of L-168049 (mouse alpha cells; L-168049 100 nmol/l): prevented | capacity to reduce docked granules after PTX pretreatment (mouse alpha cells; PTX 100 ng/ml for 16 h): prevented | capacity to reduce docked granules in the presence of exendin(9–39) (mouse alpha cells; exendin(9–39) 100 nmol/l, 15 min after addition): resistant | effect on granule docking in the presence of ω-agatoxin (mouse alpha cells; ω-agatoxin 200 nmol/l): no additive effect | reduction of depolarisation-induced P/Q-type Ca2+ channel-mediated Ca2+ entry (P/Q-type Ca^2+ channels): 34±4% | decrease of plasma glucagon AUC during hypoglycaemia (C57Bl6N mice; 100 µg/kg i.p. at t=−15 min, AUC over 45 min after insulin, 13 or 14 mice): 30% and ~ 30% | effect on hypoglycaemia-triggered increase in plasma glucagon (C57Bl6N mice; 100 µg/kg i.p. at t=−15 min, insulin 0.75 U/kg): slightly reduced | glucagonostatic effect when administered simultaneously with insulin (C57Bl6N mice; co-injected with insulin 0.75 U/kg, p=0.53): No glucagonostatic effect | glucagonostatic effect in the presence of REMD2.59 (C57Bl6N mice; mice pretreated with REMD2.59, GLP-1(9–36) 100 µg/kg): no glucagonostatic effect | effect on basal plasma glucagon (C57Bl6N mice; normoglycaemic conditions, prior to insulin injection, 100 µg/kg i.p.): not affected | time for which plasma GLP-1 remained at >100 pmol/l [3]: > 45 min

From publication PMC10844371 (Diabetologia, 2023)
